Test results reported in US8986696B2, “Trans-capsular administration of p38 map kinase inhibitors into orthopedic joints” (DePuy Mitek, Inc., priority 2007, dated 2015).
Entries after “also recorded” stand apart in the source; their conditions may differ.

Tests used:
[1] = system: injured cartilage explants, PGE2 synthesis; test: drop tower design model: PGE2 synthesis; type: cell-based, bovine; details: cocktail of cytokines
Excerpt: The device comprises a vertical rail that guides a sliding weight from 0.1 kg to 3 kg directly onto a force transducer which is situated at the bottom of the device. A sphere-shaped 2 mm indenter resting on a specimen is located at the bottom of the vertical rail. The indenter is held by a stop screw. The specimen is rigidly attached to a tissue holder underneath the indenter, to avoid side movements, the specimen is rigidly attached to the tissue holder. In this manner, the force transducer transduces a force indirectly onto the specimen. Adjusting the weight of a mass and height from which the mass drops varies the magnitude of the intended impact. For example, a weight mass (e.g., […]) held by a weight holder can be released from a height of e.g., 36 cm and dropped onto the force transducer. […]
In the first method, bovine or human PBMCs were freshly prepared using Ficoll gradient by Lampire Biological Laboratories, Inc. PBMCs in RPMI w/10% FCS at delivery were spun down at 1500 rpm for twenty minutes and the cell pellet was washed twice with 1×PBS to wash off the residual Ficoll. […] Each conditioned medium was assessed for levels of pro-inflammatory cytokines to ensure their secretion from PBMC. […]
PGE2 was measured with STAT-Prostaglandin E2 EIA ELISA kit (Cayman Biochemicals), as described in Example III above. […]

chondrocytes = type: cell-based
Excerpt: (§1) Calf articular cartilage was obtained from the knee joints of eight to twelve month old animals and was processed within twenty-four hours after sacrifice. After removal of muscle and ligament, the cartilage was kept moist using phosphate buffer solution (PBS) to prevent tissue dehydration, and was aseptically peeled off from subchondral bone with a scalpel, and the cartilage pieces were further minced into smaller pieces (˜0.3-0.5×˜0.2-0.5 cm cubes). […] Chondrocytes were then enzymatically isolated from the tissue by incubation for overnight at 37° C. with gentle agitation in 0.2% collagenase in Dulbecco's modified eagle media (DMEM). After removal of tissue debris by filtration through cell strainer and the residual collagenase by 3× wash in PBS, cells were finally resuspended at a density of 2.5×10^6 cells/ml in chondrocyte medium. A 1 ml aliquot of the cell suspension was dispensed into either a 15 ml Falcon centrifuge tube or a 96 deep-well plate and centrifuged at 2000×g for five minutes. The chondrocyte pellets were incubated at 37° C. in a humidified atmosphere of 5% CO2 for two to three weeks with a medium change every other day.
(§2) As an alternative to using calf articular cartilage, a commercial Alginate Recovered Chondrocytes (ARC) system was also used (Articular Engineering, LLC (Northbrook, Ill.)). Use of the commercial system cut down on labor and time in producing chondrocyte pellet. This system produced cartilaginous tissue in vitro using bovine chondrocytes. The first step consisted of culturing chondrocytes in alginate under conditions optimal for the formation of a cell-associated matrix (CM). The second step allowed these cells with their CM, after recovery, to rapidly form and become integrated into a solid mass of cartilage on a porous insert within two weeks. This tissue is rich in cells surrounded by a cell-associated matrix that is degraded rapidly when the cells are exposed to IL-1. ARC tissues in 3 mm punches at delivery were first dispensed into a 96 deep-well plate, one punch per well, for compound treatment. The subsequent procedures were the same as those used for the chondrocyte pellets.
(§3) Chondrocyte pellets were washed once with 1 ml of Chondrocyte Stimulation Medium and equilibrated in the same medium at room temperature for fifteen to thirty minutes. Compounds were dissolved in H2O, Ethanol or dimethyl sulfoxide (DMSO) (10^−2 M) according to suppliers' instructions and further diluted with Chondrocyte Stimulation Medium to the required concentrations. DMSO concentrations in the culture media should not exceed 1%; this concentration of DMSO has no effect on cartilage proteoglycan metabolism in response to cytokines.
(§4) The pellets were first treated with compounds at desired concentrations at 37° C. for one hour and then incubated for three to five days in the absence or presence of 10 ng/ml of IL-1β. At the end of the incubation, media and pellets were harvested and frozen for further analysis. Pellets were also fixed as needed in 4% (w/v) paraformaldehyde in PBS for histology analysis.
The LDH activity was determined colorimetrically in an enzymatic test based on the conversion of lactic acid to pyruvate in the presence of chromagenic substrate tetrazolium salt INT that was reduced to formazan.

[2] = system: IL-1β-stimulated PGE2 synthesis, bovine chondrocyte pellets / ARC tissues; test: chondrocyte pellet culture model: PGE2; type: cell-based
Excerpt: as §1, §2, §3, §4
(§5) Prostaglandin E2 (PGE2) was measured with a STAT-Prostaglandin E2 EIA ELISA kit (Cayman Biochemicals). This assay is based on the competition between PGE2 from 50 μl samples and a PGE2-alkaline phosphatase conjugate for a limited amount of PGE2 monoclonal antibody in a reaction volume of 150 μl at room temperature for one hour. The antibody-PGE2 complex bound to a goat polyclonal anti-mouse IgG that had been previously attached to the well. After washing to remove any unbound reagents, para-nitrophenyl phosphate (pNPP) was added to the well. The product of this enzymatic reaction absorbs strongly at 412 nm. Because of the large range in response to IL-1β and other cytokines, PGE2 values were converted to log scale prior to doing t-tests.

[3] = system: human tumor xenograft models; test: human tumor xenograft models; details: in vivo
[4] = system: IL-1β-stimulated NO production, bovine chondrocyte pellets / ARC tissues; test: chondrocyte pellet culture model: total nitrite/nitrate (NO); type: cell-based; details: ARC, 7.5 ng/ml IL-1, five days; JNJ 7706621 at 5 μM
Excerpt: as §1, §2, §3, §4
Nitrate/Nitrite levels were measured using the Griess reaction (Green L. C. et al., “Analysis of Nitrate, Nitrite, and [15N]nitrate in Biological Fluids,” Anal. Biochem. 126: 131-138 (1982)) with aNitrate/Nitrite Colorimetric Assay Kit (Cayman Chemicals), the contents of which are incorporated herein by reference. The assay involved a simple two-step process. The first step involved conversion of nitrate in 50 μl of culture medium to nitrite utilizing nitrate reductase in a reaction volume of 100 μl at room temperature for two hours. The second step involved the addition of 50 μl of both Griess Reagent 1 and 2, which converted nitrite into a deep purple azo compound in ten minutes. Photometric measurement of the absorbance at 540 or 550 nm due to this azo chromophore accurately determined nitrite concentration. […]

[5] = system: IL-1β-stimulated GAG release, bovine chondrocyte pellets / ARC tissues; test: chondrocyte pellet culture model: GAG degradation; type: cell-based; details: ARC, 7.5 ng/ml IL-1, five days; JNJ 7706621 at 5 μM
Excerpt: as §1, §2, §3
[…] At the end of the incubation, media and pellets were harvested and frozen for further analysis. Pellets were also fixed as needed in 4% (w/v) paraformaldehyde in PBS for histology analysis.
(§6) Glycosaminoglycan (GAG) levels in the culture media were determined by measuring the amount of polyanionic material reacting with 1,9-dimethylmethylene blue (DME) as detected by absorbance at 525 nm, using shark chondroitin sulfate as a standard. The DME blue dye-binding solution was prepared by dissolving 16 mg of DME blue in a solution containing 0.304% glycine, 0.23% sodium chloride (NaCl), 9.5 mM hydrochloric acid (HCl), pH=3.0 with absorbance at 525 equal to 0.31. Proteoglycans and proteoglycan metabolites in chondrocyte pellet were released by digesting the pellet with 125 μg/ml of papain in 0.1 M PBS, pH 6.0, 5 mM cysteine, 5 mM ethylene-diamine-tetra-acetic acid disodium salt (Na2EDTA) at 50° C. for overnight. Results are reported as either micrograms of GAG per milliliter or percent of total GAG released into culture medium.

human cancer cell lines = test: cell proliferation in culture; type: cell-based; details: in 9 cell lines, read-out: inhibits cell proliferation in culture IC50
[6] = system: cytokine-stimulated NO production, human ARC tissues; test: human ARC tissues: NO production; type: cell-based
Experimental: Nitrate/Nitrite levels were measured using the Griess reaction (Green L. C. et al., “Analysis of Nitrate, Nitrite, and [15N]nitrate in Biological Fluids,” Anal. Biochem. 126: 131-138 (1982)) with aNitrate/Nitrite Colorimetric Assay Kit (Cayman Chemicals), the contents of which are incorporated herein by reference. The assay involved a simple two-step process. The first step involved conversion of nitrate in 50 μl of culture medium to nitrite utilizing nitrate reductase in a reaction volume of 100 μl at room temperature for two hours. The second step involved the addition of 50 μl of both Griess Reagent 1 and 2, which converted nitrite into a deep purple azo compound in ten minutes. Photometric measurement of the absorbance at 540 or 550 nm due to this azo chromophore accurately determined nitrite concentration. This assay kit cannot be used for RPMI (Roswell Park Memorial Institute) derived tissue culture medium due to interference with the colorimetric reaction.
® infliximab is a monoclonal antibody against human TNFα. To test whether […]® could modulate cytokine-stimulated responses in chondrocytes, human chondrocyte pellets were first tested for an optimal concentration for cytokine stimulation. Human ARC (i.e., ARCs generated using human chondrocytes) tissues were treated with various concentrations of either TNF or IL-1 for four and five days. […]

[7] = system: cytokine-stimulated PGE2 synthesis, human ARC tissues; test: human ARC tissues: PGE2 synthesis; type: cell-based; details: for PGE2 Inhibition: TNFα stimulated responses
Experimental: as §5
(§7) ® infliximab is a monoclonal antibody against human TNFα. To test whether […]® could modulate cytokine-stimulated responses in chondrocytes, human chondrocyte pellets were first tested for an optimal concentration for cytokine stimulation. Human ARC (i.e., ARCs generated using human chondrocytes) tissues were treated with various concentrations of either TNF or IL-1 for four and five days. The culture media was collected for measurement of GAG content as described above. Other assays were performed as described above. Cytokine dosage at 5 ng/ml and treatment for five days gave a reasonable treatment window, yet was not too challenging for compound efficacy (FIG. 4).
(§8) Human ARC tissues were then treated with various concentrations of […]® in the presence or absence of either 10 ng/ml of TNFα or 5 ng/ml of IL-1β for four or five days.
(§9) The efficacy of a monoclonal antibody (mAb) against human IL-6 in inhibition of proteoglycan degradation, NO production and PGE2 synthesis on human ARC tissues stimulated with IL-6 was also tested. Human ARC tissue were treated with 12.5, 25 and 250 ng/ml of IL-6 mAb diluted into chondrocyte stimulation medium. […]

[8] = system: cytokine-stimulated GAG release, human ARC tissues; test: human ARC tissues: GAG degradation; type: cell-based
Experimental: as §6, §7, §8, §9

[9] = at 1 ng/ml, TNFα stimulated responses

CNC(=O)[C@H](Cc1ccccc1)NC(=O)[C@H](CC(C)C)[C@H](CSc1cccs1)C(=O)NO [Batimastat]
PGE2 synthesis, inhibition [1]: did not inhibit; also recorded: No effect

Nc1nc(Nc2ccc(S(N)(=O)=O)cc2)nn1C(=O)c1c(F)cccc1F [JNJ 7706621, 4-[5-Amino-1-(2,6-difluoro-benzoyl)-1H-[1,2,4]triazol-3-ylamino]-benzenesulfonamide]
cytotoxicity to chondrocytes (LDH, words) (chondrocytes): little toxicity | PGE2 synthesis ([2]; ARC, 7.5 ng/ml IL-1, five days, JNJ 7706621 at 5 μM): little effect | PGE2 Inhibition ([2]; Pellet Assay): No effect | antitumor activity in human tumor xenograft models [3]: single agent antitumor activity | NO production [4]: completely blocked | GAG Release [5]: completely blocked | IC50 (human cancer cell lines): 0.337 ± 0.123 µM

REMICADE®: monoclonal antibody against human TNFα
TNFα-induced NO production ([6]; 10 ng/ml TNFα): strongly inhibited | NO Inhibition [6, 9]: 100% at | TNFα-induced PGE2 synthesis ([7]; 10 ng/ml TNFα): strongly inhibited | PGE2 Inhibition ([7]; at 1 ng/ml): 50% at 1 ng/ml | PGE2 Inhibition ([7]; at 10 ng/ml): 100% at | IL-1β stimulated responses (PGE2, NO, GAG; words) ([8]; 5 ng/ml IL-1β): little effect | TNFα-induced GAG release ([8]; 10 ng/ml TNFα): strongly inhibited | GAG Release, inhibition [8, 9]: 100% at 1 ng/ml
